Measured values taken from ChEMBL document CHEMBL1137708, “3D-QSAR studies of boron-containing dipeptides as proteasome inhibitors with CoMFA and CoMSIA methods” (Eur J Med Chem, 2009).

assay: Inhibition of SDS-activated 20S proteasome activity in rabbit muscle; format: tissue-based, Oryctolagus cuniculus, Muscle tissue

Row | SMILES | pKi
1 | CC(C)C[C@H](NC(=O)[C@H](Cc1cccnc1)NS(C)(=O)=O)B(O)O | 8.2
2 | CC(C)C[C@H](NC(=O)[C@H](Cc1cccc2ccccc12)NS(C)(=O)=O)B1OCCNCCO1 | 9.55
3 | CC(C)C[C@H](NC(=O)[C@H](CC(C)C)NC(=O)OCc1ccccc1)B(O)O | 8.52
4 | Cc1ccc(S(=O)(=O)N[C@@H](Cc2cccc3ccccc23)C(=O)N[C@@H](CC(C)C)B(O)O)cc1 | 9.77
5 | CC(C)C[C@H](NC(=O)[C@H](Cc1ccccc1)NC(=O)c1ccccc1)B(O)O | 9.82
6 | CC(C)C[C@H](NC(=O)[C@H](Cc1ccccc1)NC(=O)c1cc[nH]c1)B(O)O | 9.85
7 | CC(C)C[C@H](NC(=O)[C@H](CC(C)C)N(C)C(=O)OCc1ccccc1)B(O)O | 6
8 | CC(C)C[C@H](NC(=O)[C@H](Cc1ccccn1)NC(=O)c1cnccn1)B(O)O | 8.15
9 | CC(C)C[C@H](NC(=O)[C@H](Cc1c[nH]cn1)NC(=O)OCc1ccccc1)B(O)O | 7.6
10 | CC(C)C[C@H](NC(=O)[C@@H](N)Cc1cccnc1)B(O)O | 6.82
11 | CC(C)C[C@H](NC(=O)[C@H](Cc1c[nH]c2ccccc12)NS(C)(=O)=O)B(O)O | 8.24
12 | CC(C)C[C@H](NC(=O)[C@H](Cc1cccc2ccccc12)NC(=O)c1cnc2ccccc2n1)B(O)O | 9.85
13 | CC(C)C[C@H](NC(=O)[C@H](Cc1cccc2ccccc12)NC(=O)c1ccccc1)B(O)O | 10.06
14 | CC(C)C[C@H](NC(=O)[C@H](Cc1ccccc1)NC(=O)NCc1ccccc1)B(O)O | 9.85
15 | CC(C)C[C@H](NC(=O)[C@@H](N)Cc1ccccn1)B(O)O | 7.5
16 | CN[C@@H](Cc1cccc2ccccc12)C(=O)N[C@@H](CC(C)C)B(O)O | 8.96
17 | CC(C)C[C@H](NC(=O)[C@H](Cc1ccccn1)NS(=O)(=O)c1cccc2cccnc12)B(O)O | 7.54
18 | CB(C)[C@H](CC(C)C)NC(=O)[C@H](CCc1ccccc1)NC(=O)c1ccc2ccccc2n1 | 8.55
19 | CC(C)C[C@H](NC(=O)[C@@H](N)Cc1cccc2ccccc12)B(O)O | 8.12
20 | CC(C)C[C@H](NC(=O)[C@H](Cc1cccc2ccccc12)NC(=O)c1ccc2ccccc2n1)B(O)O | 10.12
21 | CC(C)C[C@H](NC(=O)[C@H](Cc1ccccc1)NS(=O)(=O)c1cccc2cccnc12)B(O)O | 8.36
22 | CC(=O)N[C@@H](Cc1c[nH]c2ccccc12)C(=O)N[C@@H](CC(C)C)B(O)O | 8.89
23 | CC(C)C[C@H](NC(=O)[C@H](Cc1cccc2ccccc12)NC(=O)OCc1ccccc1)B(O)O | 10.08
24 | CC(C)C[C@H](NC(=O)[C@H](Cc1cccc2ccccc12)N(C)C(=O)OCc1ccccc1)B(O)O | 9.02
25 | CC(C)C[C@H](NC(=O)[C@H](Cc1ccccc1)NC(=O)OCc1ccccc1)B(O)O | 9.89
26 | CC(C)C[C@@H](NC(=O)[C@H](N)Cc1cccc2ccccc12)B(O)O.Cl (single isomer, unassigned) | 8.41
27 | CC(C)CC(NC(=O)[C@H](Cc1ccccc1)NC(=O)CCc1ccccc1)B(O)O (single isomer, unassigned) | 9.82
28 | CC(C)CC(NC(=O)[C@H](Cc1cccc2ccccc12)NS(=O)(=O)c1cccc2cccnc12)B(O)O (single isomer, unassigned) | 8.77
29 | CC(C)CC(NC(=O)[C@H](Cc1cccc2ccccc12)NC(=O)OCc1ccccc1)B1O[C@@H]2[C@H]3C[C@@H](C[C@]2(C)O1)C3(C)C (single isomer, unassigned) | 10
30 | CC(C)CC(NC(=O)C(CC(C)C)NC(=O)OCc1ccccc1)B1O[C@@H]2[C@H]3C[C@@H](C[C@]2(C)O1)C3(C)C (single isomer, unassigned) | 6.92

Second part, the compound after the results:

Row | pKi | SMILES
31 | 8.27 | CC(=O)N[C@@H](Cc1cccnc1)C(=O)N[C@@H](CC(C)C)B(O)O
32 | 9.09 | CC(C)C[C@H](NC(=O)[C@H](Cc1ccccc1)NC(=O)N1CCOCC1)B(O)O
33 | 9.7 | CC(C)C[C@H](NC(=O)[C@H](Cc1ccc(OCc2ccccn2)cc1)NC(=O)N1CCOCC1)B(O)O
34 | 9.6 | CC(C)C[C@H](NC(=O)[C@H](Cc1ccccc1)NC(=O)c1cccnc1)B(O)O
35 | 8.85 | CC(C)C[C@H](NC(=O)[C@H](Cc1ccccn1)NC(=O)c1ccc2ccccc2n1)B(O)O
36 | 9.38 | CC(C)C[C@H](NC(=O)[C@H](Cc1ccccc1)NC(=O)c1ccccn1)B(O)O
37 | 9.02 | CC(C)C[C@H](NC(=O)[C@H](Cc1ccc(F)cc1)NC(=O)c1cnccn1)B(O)O
38 | 8.66 | CB(C)[C@H](CC(C)C)NC(=O)[C@H](CCc1ccccc1)NC(=O)N1CCOCC1
39 | 8.7 | B[C@H](CC(C)C)NC(=O)[C@H](Cc1cccc2ccccc12)NC(=O)N1CCOCC1
40 | 8.52 | CC(C)C[C@H](NC(=O)[C@H](Cc1c[nH]c2ccccc12)NC(=O)N1CCOCC1)B(O)O
41 | 9.82 | CC(C)C[C@H](NC(=O)[C@H](Cc1cccc2ccccc12)NC(=O)N1CCOCC1)B1OCCNCCO1
42 | 9.72 | CC(C)C[C@H](NC(=O)[C@H](Cc1ccccc1)NC(=O)c1ccc2ccccc2n1)B(O)O
43 | 8.66 | CC(C)C[C@H](NC(=O)[C@H](Cc1ccc2ccccc2n1)NC(=O)N1CCOCC1)B(O)O
44 | 8.96 | CC(C)C[C@H](NC(=O)[C@H](Cc1ccccn1)NC(=O)C1CCCCC1)B(O)O
45 | 9.77 | CC(=O)N[C@@H](Cc1cccc2ccccc12)C(=O)N[C@@H](CC(C)C)B(O)O
46 | 10.52 | CC(C)C[C@H](NC(=O)[C@H](Cc1cccc2ccccc12)NC(=O)C1CCCCC1)B(O)O
47 | 9.77 | CC(C)C[C@H](NC(=O)[C@H](Cc1ccccc1)NC(=O)c1ccoc1)B(O)O
48 | 7 | CB(O)[C@H](CC(C)C)NC(=O)[C@H](Cc1cccc2ccccc12)NC(=O)N1CCOCC1
49 | 9.29 | CC(C)C[C@H](NC(=O)[C@H](Cc1ccc(O)cc1)NC(=O)N1CCOCC1)B(O)O
50 | 8.89 | CC(C)C[C@H](NC(=O)[C@H](Cc1cccnc1)NC(=O)N1CCOCC1)B(O)O
51 | 9.12 | CC(C)C[C@H](NC(=O)[C@H](Cc1ccccn1)NC(=O)c1ccccc1)B(O)O
52 | 8.2 | CC(C)C[C@H](NC(=O)[C@H](Cc1ccccn1)NC(=O)N1CCOCC1)B(O)O
53 | 8.22 | CC(C)C[C@H](NC(=O)[C@H](Cc1ccc2ncccc2c1)NC(=O)N1CCOCC1)B(O)O
54 | 6.19 | CB(C)[C@H](CC(C)C)NC(=O)[C@H](Cc1cccc2ccccc12)NC(=O)N1CCOCC1
55 | 9.64 | CC(C)C[C@H](NC(=O)[C@H](Cc1ccc(OCc2ccccc2)cc1)NC(=O)N1CCOCC1)B(O)O
56 | 9.14 | CC(C)CC(NC(=O)[C@H](Cc1cccc2ccccc12)NC(=O)N1CCOCC1)B(O)O (single isomer, unassigned)
57 | 9.08 | CC(C)CC(NC(=O)[C@H](Cc1ccc(F)cc1)NC(=O)c1ccccn1)B(O)O (single isomer, unassigned)
58 | 9.22 | CC(C)C[C@H](NC(=O)[C@H](Cc1ccccc1)NC(=O)c1cnccn1)B(O)O [BORTEZOMIB]
